41 compounds from publication PMC9781087, “Discovery of New Microbial Collagenase Inhibitors” (Life, 2022) can be followed below.

Chain of collagenase A (ColA) (P43153 87-1104 limits assumed): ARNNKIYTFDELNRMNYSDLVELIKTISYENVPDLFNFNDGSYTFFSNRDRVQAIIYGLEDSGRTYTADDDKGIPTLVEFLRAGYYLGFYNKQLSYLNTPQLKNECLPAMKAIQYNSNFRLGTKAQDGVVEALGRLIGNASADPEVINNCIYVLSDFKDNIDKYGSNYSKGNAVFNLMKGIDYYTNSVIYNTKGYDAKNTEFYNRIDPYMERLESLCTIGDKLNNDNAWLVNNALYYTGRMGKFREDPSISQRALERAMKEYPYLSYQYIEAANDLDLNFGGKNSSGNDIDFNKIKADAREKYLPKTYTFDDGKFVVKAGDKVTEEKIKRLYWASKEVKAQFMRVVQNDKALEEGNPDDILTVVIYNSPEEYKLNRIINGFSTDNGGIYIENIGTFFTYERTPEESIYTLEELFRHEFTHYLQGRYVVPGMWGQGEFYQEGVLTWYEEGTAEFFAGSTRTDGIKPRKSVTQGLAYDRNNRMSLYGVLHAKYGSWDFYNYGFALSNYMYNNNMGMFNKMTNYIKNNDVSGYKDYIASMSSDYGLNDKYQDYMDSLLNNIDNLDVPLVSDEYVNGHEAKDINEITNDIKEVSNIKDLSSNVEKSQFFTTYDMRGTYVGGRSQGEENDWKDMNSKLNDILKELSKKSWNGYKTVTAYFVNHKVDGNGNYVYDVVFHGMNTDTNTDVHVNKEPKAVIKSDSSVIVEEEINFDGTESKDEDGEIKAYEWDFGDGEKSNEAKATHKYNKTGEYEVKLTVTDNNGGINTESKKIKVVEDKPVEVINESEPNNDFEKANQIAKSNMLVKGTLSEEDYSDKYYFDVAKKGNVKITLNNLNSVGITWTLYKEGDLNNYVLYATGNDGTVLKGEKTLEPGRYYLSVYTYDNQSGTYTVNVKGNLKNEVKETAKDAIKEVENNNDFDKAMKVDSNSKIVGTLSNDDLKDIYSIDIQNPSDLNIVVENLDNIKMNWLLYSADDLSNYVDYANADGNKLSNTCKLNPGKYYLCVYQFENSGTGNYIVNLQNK

The first experiment has as its target collagenase A (ColA) (Clostridium perfringens, UniProt P43153). In words: biochemical. The arrangement: species or system C. perfringens.
Conditions: not given
As for `O=c1cc(-c2ccccc2)oc2cc(O)cc(O)c12` [chrysin], the “inhibitory effect on ColA (in words)” value is given as “low inhibitory effects”. As for `O=c1cc(-c2ccccc2)oc2cccc(O)c12` [Primuletin, primuletin], the “inhibitory effect on ColA (in words)” value is reported as “low impact on the enzyme activity”. Same read-out and setting: the result for `O=c1c(O)c(-c2cc(O)c(O)c(O)c2)oc2cc(O)cc(O)c12` [Myricetin, myricetin] reads “low inhibitory effect”; that for `O=c1c(O)c(-c2ccccc2)oc2ccc(O)cc12` [3,6-dihydroxyflavone], “low inhibitory effects”.

On to `O=C(O)/C=C/c1ccc(O)c(O)c1` [caffeic acid], for which the “inhibitory effect on ColA (in words)” value was “low effects”.

The same experiment, now with this note: 100 µM, after 30 min of incubation, preliminary screening (Table S1); * = compound precipitated due to low solubility.
Consider `Cc1ccc(S(=O)(=O)N[C@@H](CCCNC(=N)N)C(=O)O)cc1` [nalpha-p-toluenesulfonyl-L-arginine], for which the “Inhibition (%) on ColA” value is reported as 24.8%. Still for that read-out and setting: the result for `C[C@@H]1O[C@@H](OC[C@H]2O[C@@H](Oc3c(-c4ccc(OCCO)c(OCCO)c4)oc4cc(OCCO)cc(O)c4c3=O)[C@H](O)[C@@H](O)[C@@H]2O)[C@H](O)[C@H](O)[C@H]1O` [trihydroxyethylrutin, reference compound] reads 1.3%; that for `NC(=O)NCCC[C@H](NC(=O)OCC1c2ccccc2-c2ccccc21)C(=O)O` [Fmoc-L-citrulline], 20.8%. On to S-(acetamidomethyl)-L-cysteine, for which the “Inhibition (%) on ColA” value is -15.2%. On the same count and under the same terms, the result for `c1ccc2c3c([nH]c2c1)CNCC3` [tetrahydronorharman] reads 21.3%; that for `CCOC(=O)[C@H](CCCNC(=N)N)NC(=O)c1ccccc1.Cl` [benzoyl-L-arginine ethyl ester hydrochloride], -6.6%; that for `COc1ccc(-c2coc3cc(OC)ccc3c2=O)cc1` [daidzein dimethyl ether], 15.7%.

The same experiment, now with this note: read-out: Inhibition (%) on ColA.
By inhibition is commonly meant the change of the read-out against control, counted positive when it falls. As for `O=c1cc(-c2ccccc2)oc2cccc(O)c12` [Primuletin, primuletin], the inhibition at 1 µM is -9.3 ± 1.7%, the inhibition at 5 µM was -8.8 ± 2.1%, the inhibition at 10 µM was -0.7 ± 1.3% and the inhibition at 50 µM was 8.5 ± 2.1%. In addition, the inhibition at 100 µM came out at 25.4 ± 1.8%. For `O=c1c(O)c(-c2cc(O)c(O)c(O)c2)oc2cc(O)cc(O)c12` [Myricetin, myricetin] the same measures were -15.4 ± 2.7%, -4.5 ± 1.1%, -1 ± 1.1%, 13.6 ± 0.6% and 23.2 ± 2%. For `NC(=O)NCCC[C@H](N)C(=O)O` [Citrulline, citrulline] the same measures were -4.3 ± 3.5%, -14.1 ± 1.4%, 27.8 ± 3%, 24.3 ± 1.7% and 7.2 ± 0.5%.

Still in this experiment, the particulars now being: read-out: Inhibition(%) on ColA.
On to `O=c1cc(-c2ccccc2)oc2cc(O)cc(O)c12` [chrysin], for which the inhibition at 100 µM was -3.4%. In the case of `O=c1ccc2cc(O)ccc2o1` [6-hydroxycoumarin], the inhibition at 100 µM is 12.5%. The same measure, in the same setting: the value for `O=C(O)C1CCCN1S(=O)(=O)c1cccc(C(F)(F)F)c1` (stereo not shown) [1-{[3-(trifluoromethyl)phenyl]sulfonyl}-2-pyrrolidinecarboxylic acid] was 0.7%; that for `O=C1C=C(O)C(=O)c2ccccc21` [lawsone] was -6.1%; that for `O=c1oc(-c2ccccc2)cc2ccccc12` [3-phenyl-1H-2-benzopyran-1-one] was 0.2%. Still for that read-out and setting: the value for `O=c1cc(-c2ccccc2)oc2cccc(O)c12` [Primuletin, primuletin] was 33.1%; that for `CC(O)(P(=O)(O)O)P(=O)(O)O` [etidronic acid, reference compound] was 23%. Same read-out and setting: the result for `Cc1cc(O)c2c(c1)C(=O)c1cccc(O)c1C2=O` [chrysophanol] reads -11.1%; that for `O=C1c2c(O)cccc2C([C@@H]2O[C@H](CO)[C@@H](O)[C@H](O)[C@H]2O)c2cc(CO)cc(O)c21` (stereo partly shown) [aloin], 4.4%; that for `COc1cc(-c2oc3cc(O)cc(O)c3c(=O)c2O)ccc1O` [isorhamnetin], 19.9%. With `O=C(O)[C@H]1/C(=C/CO)O[C@@H]2CC(=O)N21` [potassium clavulanate, reference compound], the inhibition at 100 µM is -8.1%. Still for that read-out and setting: the value for `CC(NS(=O)(=O)c1cccc(Cl)c1)C(=O)O` (racemic) [N-(3-chlorophenylsulfonyl)-DL-alanine] was -19.2%; that for `O=S(=O)(O)CCS` [sodium 2-mercaptoethanesulfonate, reference compound] was 20.6%. Still for that read-out and setting: the result for `CC(=O)NCCCS(=O)(=O)O` [acamprosate calcium, reference compound] reads 17.2%; that for `C[C@H](CS)C(=O)N1CCC[C@H]1C(=O)O` [captopril, reference compound], 5.2%; that for `O=C(O)C1NCCc2c1[nH]c1ccccc21` (stereo not drawn) [1,2,3,4-tetrahydro-beta-carboline-1-carboxylic acid], 1.5%. On the same count and under the same terms, the value for `Nc1ccc2c(c1N)C(=O)c1ccccc1C2=O` [1,2-diaminoanthraquinone] was 4.3%. As to `O=C(O)C1=C[C@@H](O)[C@@H](O)[C@H](O)C1` [shikimic acid], the inhibition at 100 µM is -0.2%. On the same count and under the same terms, the value for `O=c1c(-c2ccc(O)cc2)coc2cc(O)cc(O)c12` [genistein] was -1.1%; that for `CC1CNc2c(cccc2S(=O)(=O)N[C@@H](CCCNC(=N)N)C(=O)N2CC[C@@H](C)C[C@@H]2C(=O)O)C1` (stereo partly shown) [argatroban, reference compound] was -12.3%. Still for that read-out and setting: the result for `Cc1cc(NC(=O)C2=C(O)c3ccccc3S(=O)(=O)N2C)no1` [isoxicam, reference compound] reads -10.1%. Regarding `Oc1cc(O)c2c(c1)O[C@H](c1ccc(O)c(O)c1)[C@H](O)C2` [epicatechin], the inhibition at 100 µM was 3.6%.

For `C[C@@H]1CC[C@H]2[C@@H](C)C(=O)O[C@@H]3O[C@@]4(C)CC[C@@H]1[C@]32OO4` [artemisinin, reference compound], the inhibition at 100 µM was determined as 5.6%.

Consider `O=c1c(O)c(-c2cc(O)c(O)c(O)c2)oc2cc(O)cc(O)c12` [Myricetin, myricetin], for which the inhibition at 100 µM was found to be 27.6%. Still for that read-out and setting: the result for `O=c1c(O)c(-c2ccccc2)oc2ccc(O)cc12` [3,6-dihydroxyflavone] reads 2.7%. The same measure, in the same setting: the value for `O=C(O)/C=C/c1ccc(O)c(O)c1` [caffeic acid] was -3.8%; that for `CC(=O)c1c(O)c(C)c(O)c2c1OC1=CC(=O)C(C(C)=O)C(=O)C12C` (stereo not shown) [usnic acid] was 3.9%. The same measure, in the same setting: the result for `C[C@]1(Cn2ccnn2)[C@H](C(=O)O)N2C(=O)C[C@H]2S1(=O)=O` [tazobactam, reference compound] reads 18.7%; that for `NC(=O)NCCC[C@H](N)C(=O)O` [Citrulline, citrulline], 6.8%. With `Oc1cc(O)nc(S)n1` [4,6-dihydroxy-2-mercaptopyrimidine], the inhibition at 100 µM is -7.2%. Take `COc1ccc2oc(-c3ccccc3)c(O)c(=O)c2c1` [6-methoxyflavonol]: the inhibition at 100 µM stood at 10.7%.

For `O=C(O)c1cc(O)c(O)c(O)c1` [gallic acid], the inhibition at 100 µM was -21.4%.

As to `CC(=O)c1ccc(S(=O)(=O)NC(=O)NC2CCCCC2)cc1` [acetohexamide, reference compound], the inhibition at 100 µM came to 16.6%.

Regarding `COc1cc([C@@H]2c3cc4c(cc3[C@H](O)[C@H]3COC(=O)[C@H]23)OCO4)cc(OC)c1OC` [podophyllotoxin, reference compound], the inhibition at 100 µM was -9.7%.
